The record followed here is the supplement of paper PMC11208160.

This data set can be described thus: recombinant barcode read abundance after kanamycin selection (control-corrected) (log10(CPM+1)); higher = more efficient recombination; sequences stand for … in AGTGCAGAGAAAATCGGCCAGTTTTCTCTGCCTGCAGTCCGCATGCCGT…AGATTTATGCAGCGGACTGCCTTTCTCCCAAAGTGATAAACCGGACAGTATCATGGACCGGTTTTCCCGGTAATCCGTATTTGCAAGGTTGGTTTCACT; site = the 11-nt target. The gist of the method:
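Recombination efficiency draws on barcodes counted at recombinant junctions in a pooled E. coli screen of targets paired with IS621 bridge RNA target-binding loops. The counts were converted to counts per million, averaged and corrected against the chloramphenicol/ampicillin LB agar control, then reported as log10(CPM+1). Selection plates held chloramphenicol/ampicillin/kanamycin with 0.1 mM IPTG, with two replicates per condition.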
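Note: IS621 recombinase and bridge RNA in Escherichia coli cells.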

With “GTCGGAGCTTGGGTTCTAACCTGTTGCTG (site GTCGGAGCTCA)”, the “recombinant barcode read abundance (log10)” value worked out at 0.757.

As to “GTCGGAGCTTGGGTTCTAACCTGTTGCTG (site GTCGGAGCTCC)”, the “recombinant barcode read abundance (log10)” value was found to be 0.511.

As for “GTCGGAGCTTGGGTTCTAACCTGTTGCTG (site GTCGGAGCTCG)”, the “recombinant barcode read abundance (log10)” value was determined as 0.353.

“GTCGGAGCTTGGGTTCTAACCTGTTGCTG (site GTCGGAGCTCT)”: the “recombinant barcode read abundance (log10)” value was 0.737.

As to “GTCGGCACTTGGGTTCTAACCTGTTGCCT (site GTCGGAACTAG)”, the “recombinant barcode read abundance (log10)” value stood at 0.359.

On to “GTCGGCACTTGGGTTCTAACCTGTTGCCT (site GTCGGCACTAG)”, for which the “recombinant barcode read abundance (log10)” value is 0.491.

Regarding “GTCGGCACTTGGGTTCTAACCTGTTGCCT (site GTCGGGACTAG)”, the “recombinant barcode read abundance (log10)” value came to 0.653.

Turning to “GTCGGCACTTGGGTTCTAACCTGTTGCCT (site GTCGGTACTAG)”, the “recombinant barcode read abundance (log10)” value came to 0.221.

On to “GTCGGCGCTTGGGTTCTAACCTGTTGCCT (site GTAGGCGCTAG)”, for which the “recombinant barcode read abundance (log10)” value was 0.107.

Consider “GTCGGCGCTTGGGTTCTAACCTGTTGCCT (site GTCGGCGCTAG)”, for which the “recombinant barcode read abundance (log10)” value was found to be 0.912.

As to “GTCGGCGCTTGGGTTCTAACCTGTTGCCT (site GTGGGCGCTAG)”, the “recombinant barcode read abundance (log10)” value amounted to 0.531.

As to “GTCGGCGCTTGGGTTCTAACCTGTTGCCT (site GTTGGCGCTAG)”, the “recombinant barcode read abundance (log10)” value stood at 0.256.

On to “GTCGGGACTTGGGTTCTAACCTGTTGCCT (site GTCGGAACTAG)”, for which the “recombinant barcode read abundance (log10)” value came to 0.863.

Take “GTCGGGACTTGGGTTCTAACCTGTTGCCT (site GTCGGCACTAG)”: the “recombinant barcode read abundance (log10)” value came out at 0.113.

With “GTCGGGACTTGGGTTCTAACCTGTTGCCT (site GTCGGGACTAG)”, the “recombinant barcode read abundance (log10)” value was found to be 1.51.

In the case of “GTCGGGACTTGGGTTCTAACCTGTTGCCT (site GTCGGTACTAG)”, the “recombinant barcode read abundance (log10)” value turned out to be 0.0446.

For the sequence “GTCGTAGCTTGGGTTCTAACCTGTTGCCT (site GACGTAGCTAG)”, the “recombinant barcode read abundance (log10)” value was 0.464.

On to “GTCGTAGCTTGGGTTCTAACCTGTTGCCT (site GCCGTAGCTAG)”, for which the “recombinant barcode read abundance (log10)” value came to 0.0842.

On to “GTCGTAGCTTGGGTTCTAACCTGTTGCCT (site GGCGTAGCTAG)”, for which the “recombinant barcode read abundance (log10)” value turned out to be 0.116.

With “GTCGTAGCTTGGGTTCTAACCTGTTGCCT (site GTCGTAGCTAG)”, the “recombinant barcode read abundance (log10)” value amounted to 0.256.

In the case of “GTCTAAGCTTGGGTTCTAACCTGTTGCCT (site GTCTAAGCTAG)”, the “recombinant barcode read abundance (log10)” value worked out at 0.171.

For “GTCTAAGCTTGGGTTCTAACCTGTTGCCT (site GTCTGAGCTAG)”, the “recombinant barcode read abundance (log10)” value stood at 0.0375.

With “GTCTACTCTTGGGTTCTAACCTGTTGCTG (site GTCTACTCTCA)”, the “recombinant barcode read abundance (log10)” value turned out to be 1.65.

For the sequence “GTCTACTCTTGGGTTCTAACCTGTTGCTG (site GTCTTCTCTAA)”, the “recombinant barcode read abundance (log10)” value was determined as 0.0134.

With “GTCTCATCTTGGGTTCTAACCTGTTGCCT (site GTCTAATCTAG)”, the “recombinant barcode read abundance (log10)” value came to 0.0787.

As for “GTCTCATCTTGGGTTCTAACCTGTTGCCT (site GTCTCATCTAG)”, the “recombinant barcode read abundance (log10)” value was determined as 0.154.

On to “GTCTCATCTTGGGTTCTAACCTGTTGCCT (site GTCTGATCTAG)”, for which the “recombinant barcode read abundance (log10)” value came to 0.0892.

Take “GTCTCATCTTGGGTTCTAACCTGTTGCCT (site GTCTTATCTAG)”: the “recombinant barcode read abundance (log10)” value is 0.0289.

In the case of “GTCTCGGCTTGGGTTCTAACCTGTTGCTG (site GGGTCGGCTCA)”, the “recombinant barcode read abundance (log10)” value worked out at 0.0356.

For the sequence “GTCTCGGCTTGGGTTCTAACCTGTTGCTG (site GTCTCGGCTCA)”, the “recombinant barcode read abundance (log10)” value is 0.0917.

Turning to “GTCTCTACTTGGGTTCTAACCTGTTGCCG (site GTCACTACTCG)”, the “recombinant barcode read abundance (log10)” value was 0.234.

Turning to “GTCTCTACTTGGGTTCTAACCTGTTGCCG (site GTCCCTACTCG)”, the “recombinant barcode read abundance (log10)” value stood at 0.593.

Turning to “GTCTCTACTTGGGTTCTAACCTGTTGCCG (site GTCGCTACTCG)”, the “recombinant barcode read abundance (log10)” value amounted to 0.117.

Regarding “GTCTCTACTTGGGTTCTAACCTGTTGCCG (site GTCTCTACTCG)”, the “recombinant barcode read abundance (log10)” value is 0.0442.

“GTCTCTTCTTGGGTTCTAACCTGTTGCTA (site GTCTCGTCTAA)”: the “recombinant barcode read abundance (log10)” value was found to be 0.0282.

As to “GTCTCTTCTTGGGTTCTAACCTGTTGCTA (site GTCTCTTCTTA)”, the “recombinant barcode read abundance (log10)” value worked out at 0.306.

Take “GTCTTACCTTGGGTTCTAACCTGTTGCCT (site GTCATACCTAG)”: the “recombinant barcode read abundance (log10)” value amounted to 0.0521.

“GTCTTACCTTGGGTTCTAACCTGTTGCCT (site GTCCTACCTAG)”: the “recombinant barcode read abundance (log10)” value was 1.21.

Regarding “GTCTTACCTTGGGTTCTAACCTGTTGCCT (site GTCGTACCTAG)”, the “recombinant barcode read abundance (log10)” value was 0.098.

Turning to “GTCTTACCTTGGGTTCTAACCTGTTGCCT (site GTCTTACCTAG)”, the “recombinant barcode read abundance (log10)” value is 1.34.

As to “GTCTTACCTTGGGTTCTAACCTGTTGCTT (site GTCTTACCTAA)”, the “recombinant barcode read abundance (log10)” value was 0.74.

Regarding “GTCTTACCTTGGGTTCTAACCTGTTGCTT (site TTCATACCTAA)”, the “recombinant barcode read abundance (log10)” value worked out at 0.128.

“GTCTTCCCTTGGGTTCTAACCTGTTGCCG (site ATCTTACCTCG)”: the “recombinant barcode read abundance (log10)” value turned out to be 0.0566.

As for “GTCTTCCCTTGGGTTCTAACCTGTTGCCG (site GTCTTCCCTCG)”, the “recombinant barcode read abundance (log10)” value was found to be 1.5.

For “GTCTTCCCTTGGGTTCTAACCTGTTGCGT (site GTCATGCCTAC)”, the “recombinant barcode read abundance (log10)” value turned out to be 0.0371.

Consider “GTCTTCCCTTGGGTTCTAACCTGTTGCGT (site GTCTTCCCTAC)”, for which the “recombinant barcode read abundance (log10)” value came to 1.74.

Take “GTGAAGCCTTGGGTTCTAACCTGTTGCCT (site ATGAAGCCTAG)”: the “recombinant barcode read abundance (log10)” value turned out to be 0.826.

“GTGAAGCCTTGGGTTCTAACCTGTTGCCT (site CTGAAGCCTAG)”: the “recombinant barcode read abundance (log10)” value is 0.464.

As for “GTGAAGCCTTGGGTTCTAACCTGTTGCCT (site GTGAAGCCTAG)”, the “recombinant barcode read abundance (log10)” value was found to be 1.48.

With “GTGAAGCCTTGGGTTCTAACCTGTTGCCT (site TTGAAGCCTAG)”, the “recombinant barcode read abundance (log10)” value is 0.421.

For “GTGACCGCTTGGGTTCTAACCTGTTGCCT (site GTAACCGCTAG)”, the “recombinant barcode read abundance (log10)” value was determined as 2.

For “GTGACCGCTTGGGTTCTAACCTGTTGCCT (site GTCACCGCTAG)”, the “recombinant barcode read abundance (log10)” value was determined as 0.235.

On to “GTGACCGCTTGGGTTCTAACCTGTTGCCT (site GTGACCGCTAG)”, for which the “recombinant barcode read abundance (log10)” value is 1.89.

“GTGACCGCTTGGGTTCTAACCTGTTGCCT (site GTTACCGCTAG)”: the “recombinant barcode read abundance (log10)” value was found to be 0.59.

As to “GTGACCTCTTGGGTTCTAACCTGTTGCTG (site GGGACCTCTGA)”, the “recombinant barcode read abundance (log10)” value turned out to be 0.0723.

For “GTGACCTCTTGGGTTCTAACCTGTTGCTG (site GTGACCTCTCA)”, the “recombinant barcode read abundance (log10)” value was found to be 1.51.

Regarding “GTGAGGCCTTGGGTTCTAACCTGTTGCCT (site ATGAGGCCTAG)”, the “recombinant barcode read abundance (log10)” value was 1.19.

Regarding “GTGAGGCCTTGGGTTCTAACCTGTTGCCT (site CTGAGGCCTAG)”, the “recombinant barcode read abundance (log10)” value turned out to be 0.151.

Turning to “GTGAGGCCTTGGGTTCTAACCTGTTGCCT (site GTGAGGCCTAG)”, the “recombinant barcode read abundance (log10)” value was 0.153.
